Test results taken from publication PMC10410440, “Preclinical PK investigation of a novel IDO1/TDO dual inhibitor—SHR9146 in mouse plasma and tissues by LC-MS/MS” (Frontiers in Oncology, 2023).
“And” between values parts separate entries of the source, which are not always exact repeats. Identical values can stand only once. Like-named read-outs stand apart in the source and are kept apart here.

Experiment: Tissue distribution of SHR9146 in mice after oral gavage of 40 mg/kg
Assay type: in vivo, ICR mice
Settings: 40 mg/kg, 40 mg/kg oral gavage; for concentration at 1 h / concentration at 3 h / concentration at 6 h / concentration at 24 h: female, ICR, mouse, po
Method: ICR mice with body weight 16–26 g were supplied by Shanghai Lingchang Biotechnology Co., Ltd. (animal breeding license number SCXK (Shanghai) 2013-0018) and housed at Shanghai Institute of Materia Medica, Chinese Academy of Sciences [animal use license number SYXK (Shanghai) 2015-0027]. The mice used in this study were fasted overnight for 12 h but had free access to water. Food was supplied 4 h post-dose. All experiments in this study were conducted in accordance with the Guidelines for the Care and Use of Laboratory Animals of Shanghai Institute of Materia Medica, Chinese Academy of Sciences.
Another set of 30 mice were randomly assigned into five groups with equal numbers, males and females, for tissue distribution study with oral gavage at a single dose of 40 mg/kg at predetermined different time points: pre-dose and post dose at 1, 3, 6, and 24 h, respectively. The whole brain, heart, liver, spleen, lung, kidney, bladder, pancreas, testis, ovary, uterus, stomach, small intestine, adrenal gland, skin, skeletal muscle, thyroid gland, and abdominal fat tissues as well as the whole blood and plasma samples were harvested. Tissue samples were washed with 0.9% sodium chloride solution to remove the residual blood or contents, blotted on a filter paper, and stored at −70°C prior to the analysis.
Protein precipitation was selected for the pretreatment of both the plasma and the tissue homogenate prepared after thawing at room temperature, cut into pieces, and homogenized with a quintuple methanol–water mixture (1:1, v/v) for each tissue sample.
Briefly as follows, an aliquot of 25-μL plasma or tissue homogenate was spiked with 100 μL of internal standard solution (1 μg/mL for plasma, 0.2 μg/mL for tissue homogenate) and 300 μL of methanol added and vortex mixed for 60 s. The mixture was then centrifuged at 14,000 rpm at 4°C for 5.0 min, and the supernatant was diluted with methanol–water (4:1, v/v) in a ratio of 1:9 for the plasma or 1:1 for the tissue homogenate, and 5 μL of the resulting solution was injected for the LC-MS/MS analysis.
After oral administration of 40 mg/kg SHR9146, samples in different tissues at predetermined time points (pre-drug administration, post-drug administration at 1, 3, 6, and 24 h) were collected and prepared for the analysis. The drug concentrations of SHR9146 (μg/g or μg/mL) were determined for each mouse, and the mean and standard deviation were further obtained (Table S7).

[1] = kidney, Mean (n=3), read-out: SHR9146 concentration in Kidney
[2] = liver, Mean (n=3), read-out: SHR9146 concentration in Liver
[3] = lung, Mean (n=3), read-out: SHR9146 concentration in Lung
[4] = ovary, Mean (n=3), read-out: SHR9146 concentration in Ovary
[5] = pancreas, Mean (n=3), read-out: SHR9146 concentration in Pancreas
[6] = plasma, Mean (n=3), read-out: SHR9146 concentration in Plasma
[7] = skeletal muscle, Mean (n=3), read-out: SHR9146 concentration in Skeletal muscle
[8] = skin, Mean (n=3), read-out: SHR9146 concentration in Skin
[9] = small intestine, Mean (n=3), read-out: SHR9146 concentration in Small intestine
[10] = spleen, Mean (n=3), read-out: SHR9146 concentration in Spleen
[11] = stomach, Mean (n=3), read-out: SHR9146 concentration in Stomach
[12] = stomach, individual mice, read-out: SHR9146 concentration in Stomach
[13] = thyroid gland, Mean (n=3), read-out: SHR9146 concentration in thyroid gland
[14] = uterus, Mean (n=3), read-out: SHR9146 concentration in Uterus
[15] = whole blood, Mean (n=3), read-out: SHR9146 concentration in Whole blood

OCCn1cc(-c2ccc(N3CCC([C@H]4c5c(F)cccc5-c5cncn54)CC3)cc2)cn1 [SHR9146]
concentration at 1 h (kidney, 1 h, individual mice, read-out: SHR9146 concentration in Kidney): 13100 ng/g
concentration at 3 h [1]: 12700 ng/g
concentration at 6 h [1]: 1430 ng/g
concentration at 1 h (liver, 1 h, Mean (n=3), read-out: SHR9146 concentration in Liver): 24300 ng/g
concentration at 1 h (liver, 1 h, individual mice, read-out: SHR9146 concentration in Liver): 22800 ng/g
concentration at 3 h [2]: 19800 ng/g
concentration at 6 h [2]: 1950 ng/g
concentration at 24 h [2]: 37 ng/g
concentration at 24 h (liver, individual mice, read-out: SHR9146 concentration in Liver): 54 ng/g
concentration at 1 h (lung, 1 h, Mean (n=3), read-out: SHR9146 concentration in Lung): 16300 ng/g
concentration at 1 h (lung, 1 h, individual mice, read-out: SHR9146 concentration in Lung): 13600 ng/g
concentration at 3 h [3]: 25800 ng/g
concentration at 6 h [3]: 1380 ng/g
concentration at 24 h [3]: 165 ng/g
concentration at 24 h (lung, individual mice, read-out: SHR9146 concentration in Lung): 154 ng/g
concentration at 1 h (ovary, 1 h, Mean (n=3), read-out: SHR9146 concentration in Ovary): 18300 ng/g
concentration at 1 h (ovary, 1 h, individual mice, read-out: SHR9146 concentration in Ovary): 17000 ng/g
concentration at 3 h [4]: 12700 ng/g
concentration at 6 h [4]: 704 ng/g
concentration at 1 h (pancreas, 1 h, Mean (n=3), read-out: SHR9146 concentration in Pancreas): 18000 ng/g
concentration at 1 h (pancreas, 1 h, individual mice, read-out: SHR9146 concentration in Pancreas): 15900 ng/g
concentration at 3 h [5]: 12500 ng/g
concentration at 6 h [5]: 638 ng/g
concentration at 1 h (plasma, 1 h, Mean (n=3), read-out: SHR9146 concentration in Plasma): 13100 ng/mL
concentration at 1 h (plasma, 1 h, individual mice, read-out: SHR9146 concentration in Plasma): 11800 ng/mL
concentration at 3 h [6]: 9070 ng/mL
concentration at 6 h [6]: 471 ng/mL
concentration at 1 h (skeletal muscle, 1 h, Mean (n=3), read-out: SHR9146 concentration in Skeletal muscle): 7800 ng/g
concentration at 1 h (skeletal muscle, 1 h, individual mice, read-out: SHR9146 concentration in Skeletal muscle): 6440 ng/g
concentration at 3 h [7]: 5910 ng/g
concentration at 6 h [7]: 294 ng/g
concentration at 1 h (skin, 1 h, Mean (n=3), read-out: SHR9146 concentration in Skin): 11100 ng/g
concentration at 1 h (skin, 1 h, individual mice, read-out: SHR9146 concentration in Skin): 9600 ng/g
concentration at 3 h [8]: 7700 ng/g
concentration at 6 h [8]: 498 ng/g
concentration at 1 h (small intestine, 1 h, Mean (n=3), read-out: SHR9146 concentration in Small intestine): 21600 ng/g
concentration at 1 h (small intestine, 1 h, individual mice, read-out: SHR9146 concentration in Small intestine): 19000 ng/g
concentration at 3 h [9]: 16400 ng/g
concentration at 3 h (small intestine, individual mice, read-out: SHR9146 concentration in Small intestine): 14600 ng/g
concentration at 6 h [9]: 832 ng/g
concentration at 1 h (spleen, 1 h, Mean (n=3), read-out: SHR9146 concentration in Spleen): 6700 ng/g
concentration at 1 h (spleen, 1 h, individual mice, read-out: SHR9146 concentration in Spleen): 6190 ng/g
concentration at 3 h [10]: 4740 ng/g
concentration at 6 h [10]: 241 ng/g
concentration at 1 h (stomach, 1 h, Mean (n=3), read-out: SHR9146 concentration in Stomach): 27800 ng/g
concentration at 1 h (stomach, 1 h, individual mice, read-out: SHR9146 concentration in Stomach): 27400 ng/g
concentration at 3 h [11]: 27200 ng/g
concentration at 3 h [12]: 29000 ng/g
concentration at 6 h [11]: 3870 ng/g
concentration at 24 h [11]: 848 ng/g
concentration at 24 h [12]: 782 ng/g
concentration at 1 h (thyroid gland, 1 h, Mean (n=3), read-out: SHR9146 concentration in thyroid gland): 9550 ng/g
concentration at 1 h (thyroid gland, 1 h, individual mice, read-out: SHR9146 concentration in thyroid gland): 8340 ng/g
concentration at 3 h [13]: 6940 ng/g
concentration at 6 h [13]: 378 ng/g
concentration at 1 h (uterus, 1 h, Mean (n=3), read-out: SHR9146 concentration in Uterus): 10700 ng/g
concentration at 1 h (uterus, 1 h, individual mice, read-out: SHR9146 concentration in Uterus): 9740 ng/g
concentration at 3 h [14]: 6040 ng/g
concentration at 6 h [14]: 363 ng/g
concentration at 1 h (whole blood, 1 h, Mean (n=3), read-out: SHR9146 concentration in Whole blood): 8660 ng/mL
concentration at 1 h (whole blood, 1 h, individual mice, read-out: SHR9146 concentration in Whole blood): 7360 ng/mL
concentration at 3 h [15]: 6190 ng/mL
concentration at 6 h [15]: 298 ng/mL
SHR9146 concentration in Bladder (male, 1 h, individual mice): 13.766 µg/g and 11.095 µg/g
SHR9146 concentration in Kidney (male, 1 h, individual mice): 15.501 µg/g and 7.908 µg/g
SHR9146 concentration in Liver (male, 1 h, individual mice): 23.893 µg/g and 14.099 µg/g
SHR9146 concentration in Lung (male, 1 h, individual mice): 16.090 µg/g and 8.210 µg/g
